Patent publication US9371319B2, “Pyrrolopyridineamino derivatives as MPS1 inhibitors” (priority 2011, dated 2016)

Molecular target: T1, full length MPS1 (Homo sapiens, UniProt P33981)
T1 sequence (P33981 1-857): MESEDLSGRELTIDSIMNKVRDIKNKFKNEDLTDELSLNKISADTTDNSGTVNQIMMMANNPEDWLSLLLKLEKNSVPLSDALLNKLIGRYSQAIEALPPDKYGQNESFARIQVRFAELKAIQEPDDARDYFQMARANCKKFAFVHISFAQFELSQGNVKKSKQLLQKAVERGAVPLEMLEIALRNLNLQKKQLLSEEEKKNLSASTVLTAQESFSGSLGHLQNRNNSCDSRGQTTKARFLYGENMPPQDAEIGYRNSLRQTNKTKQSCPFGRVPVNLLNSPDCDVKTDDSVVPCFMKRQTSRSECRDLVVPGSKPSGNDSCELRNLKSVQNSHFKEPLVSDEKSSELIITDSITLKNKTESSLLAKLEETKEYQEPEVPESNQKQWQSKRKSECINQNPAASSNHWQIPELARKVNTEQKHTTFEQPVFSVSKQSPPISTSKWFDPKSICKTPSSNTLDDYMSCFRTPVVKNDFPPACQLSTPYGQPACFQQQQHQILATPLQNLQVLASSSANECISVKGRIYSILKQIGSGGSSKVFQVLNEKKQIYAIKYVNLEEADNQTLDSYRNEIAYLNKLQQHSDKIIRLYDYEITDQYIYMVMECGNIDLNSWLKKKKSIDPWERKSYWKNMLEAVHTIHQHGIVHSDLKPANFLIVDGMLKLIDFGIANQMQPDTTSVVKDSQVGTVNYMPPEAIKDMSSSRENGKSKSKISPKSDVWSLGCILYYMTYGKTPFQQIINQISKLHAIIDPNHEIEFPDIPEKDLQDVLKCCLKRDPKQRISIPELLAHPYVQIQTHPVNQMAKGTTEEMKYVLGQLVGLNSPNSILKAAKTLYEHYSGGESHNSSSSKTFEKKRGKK
Assay: biochemical
Method: Measurement of Inhibition of MPS1 Kinase
(5 μM), ATP (10 μM), either DMSO (1% v/v) or the test compound (in the range 0.25 nM-100 μM in 1% DMSO) and assay buffer (50 mM HEPES (pH 7.0), 0.02% NaN3, 0.01% BSA, 0.1 mM Orthovandate, […], 1 μM DTT, Roche protease inhibitor). The reaction was carried out for 60 min at room temperature and stopped by the addition of buffer (10 μl) containing 20 mM EDTA, 0.05% (v/v) Brij-35, in 0.1M HEPES-buffered saline (Free acid, Sigma, UK). The plate was read on a Caliper EZ reader II (Caliper Life Sciences).
The % inhibition of the compounds is calculated relative to the means of selected control wells. […] The % inhibitions at each concentration are then fitted to a 4 parameter logistic fit: y=(a+((b−a)/(1+((c/x^d)))) where a=asym min, b=asym max, c=IC50 and d=hill coefficient

Compound	IC50 [µM]
CN(C)C(=O)c1ccc(Nc2cc3c(cn2)cc(-c2cnn(C)c2)n3Cc2ccc(F)cc2)c(Cl)c1 [Example 70]	0.038
Cn1cc(-c2cc3cnc(Nc4ccc(F)cc4Cl)cc3[nH]2)cn1 [Example 130, N-(2-Chloro-4-fluorophenyl)-2-(1-methyl-1H-pyrazol-4-yl)-1H-pyrrolo[3,2-c]pyridin-6-amine]	0.51
COc1ccc(Nc2cc3[nH]c(-c4cnn(CC(=O)N(C)C)c4)cc3cn2)c(OC)c1 [Example 135, 2-(4-(6-(2,4-Dimethoxyphenylamino)-1H-pyrrolo[3,2-c]pyridin-2-yl)-1H-pyrazol-1-yl)-N,N-dimethylacetamide]	0.821
Cn1cc(-c2cc3cnc(Nc4ccccc4Cl)cc3n2CC2CCCCC2)cn1 [Example 67]	4.88
COc1ccc(C(=O)N(C)C)cc1Nc1cc2[nH]c(-c3cnn(C)c3)cc2cn1 [Example 114, 4-Methoxy-N,N-dimethyl-3-(2-(1-methyl-1H-pyrazol-4-yl)-1H-pyrrolo[3,2-c]pyridin-6-ylamino)benzamide]	0.497
Cn1cc(-c2[nH]c3cc(Nc4ccccc4Cl)ncc3c2Cl)cn1 [Example 193, 3-Chloro-N-(2-chlorophenyl)-2-(1-methyl-1H-pyrazol-4-yl)-1H-pyrrolo[3,2-c]pyridin-6-amine]	0.421
CC(=O)c1ccccc1Nc1cc2c(cn1)cc(-c1cnn(C)c1)n2C(=O)OC(C)(C)C [Example 9]	0.077
Cn1cc(-c2cc3cnc(Nc4ccccc4C#N)cc3n2C(=O)OC(C)(C)C)cn1 [Example 54]	0.032
FC(F)(F)c1ccc(Nc2cc3[nH]c(-c4cn[nH]c4)cc3cn2)cc1 [Example 161, 2-(1H-Pyrazol-4-yl)-N-(4-(trifluoromethyl)phenyl)-1H-pyrrolo[3,2-c]pyridin-6-amine]	1.06
COc1ccc(Nc2cc3[nH]c(-c4cnn(Cc5cc(C)on5)c4)cc3cn2)c(OC)c1 [Example 173, N-(2,4-Dimethoxyphenyl)-2-(1-((5-methylisoxazol-3-yl)methyl)-1H-pyrazol-4-yl)-1H-pyrrolo[3,2-c]pyridin-6-amine]	0.207
Cc1nc(C)c(-c2ccc(Nc3cc4[nH]c(-c5cnn(C)c5)cc4cn3)c(Cl)c2)s1 [Example 150, N-(2-Chloro-4-(2,4-dimethylthiazol-5-yl)phenyl)-2-(1-methyl-1H-pyrazol-4-yl)-1H-pyrrolo[3,2-c]pyridin-6-amine]	0.114
Cc1nc(C)c(-c2ccc(Nc3cc4c(cn3)cc(-c3cnn(C)c3)n4C(=O)OC(C)(C)C)c(Cl)c2)s1 [Example 45]	0.052
Fc1ccc(Nc2cc3[nH]c(-c4cn[nH]c4)cc3cn2)nc1 [Example 189, N-(5-fluoropyridin-2-yl)-2-(1H-pyrazol-4-yl)-1H-pyrrolo[3,2-c]pyridin-6-amine]	0.159
Cc1cc(Cn2c(-c3cnn(C)c3)cc3cnc(Nc4ccc(C(=O)N(C)C)cc4Cl)cc32)no1 [Example 90]	0.343
Cn1cc(-c2[nH]c3cc(Nc4ccc(S(C)(=O)=O)cc4Cl)ncc3c2Cl)cn1 [Example 197, 3-Chloro-N-(2-chloro-4-(methylsulfonyl)phenyl)-2-(1-methyl-1H-pyrazol-4-yl)-1H-pyrrolo[3,2-c]pyridin-6-amine]	0.069

Compounds with a lower IC50, results first:

IC50 [µM]	Compound
0.029	Cc1ncc(-c2ccc(Nc3cc4c(cn3)cc(-c3cnn(C)c3)n4CC3CC3)c(Cl)c2)n1C [Example 105]
0.025	COc1cc(CN2CCCC2)ccc1Nc1cc2[nH]c(-c3cnn(C)c3)cc2cn1 [Example 137, N-(2-methoxy-4-(pyrrolidin-1-ylmethyl)phenyl)-2-(1-methyl-1H-pyrazol-4-yl)-1H-pyrrolo[3,2-c]pyridin-6-amine]
0.024	Cn1cc(-c2cc3cnc(Nc4ccc(S(C)(=O)=O)cc4Cl)cc3[nH]2)cn1 [Example 131, N-(2-Chloro-4-(methylsulfonyl)phenyl)-2-(1-methyl-1H-pyrazol-4-yl)-1H-pyrrolo[3,2-c]pyridin-6-amine]
0.024	Cn1cc(-c2cc3cnc(Nc4ccc(S(C)(=O)=O)cc4Cl)cc3n2C(=O)OC(C)(C)C)cn1 [Example 55]
0.02	CNC(=O)c1ccc(Nc2cc3[nH]c(-c4cnn(C)c4)cc3cn2)c(Cl)c1 [Example 134, 3-Chloro-N-methyl-4-(2-(1-methyl-1H-pyrazol-4-yl)-1H-pyrrolo[3,2-c]pyridin-6-ylamino)benzamide]
0.011	Cc1oncc1-c1ccc(Nc2cc3c(cn2)cc(-c2cnn(C)c2)n3C(=O)OC(C)(C)C)c(Cl)c1 [Example 23]
0.011	Cn1cc(-c2cc3cnc(Nc4ccc(-c5cncn5C)cc4Cl)cc3n2C(=O)OC2CCCC2)cn1 [Example 78]
0.009	Cn1cc(-c2[nH]c3cc(Nc4ccc(C(=O)N5CCS(=O)(=O)CC5)cc4Cl)ncc3c2Cl)cn1 [Example 196, (3-Chloro-4-(3-chloro-2-(1-methyl-1H-pyrazol-4-yl)-1H-pyrrolo[3,2-c]pyridin-6-ylamino)phenyl)(S,S-dioxo-thiomorpholino)methanone]
0.009	c1cc(Nc2cc3[nH]c(-c4cn[nH]c4)cc3cn2)ccc1CN1CCOCC1 [Example 171, N-(4-(Morpholinomethyl)phenyl)-2-(1H-pyrazol-4-yl)-1H-pyrrolo[3,2-c]pyridin-6-amine]
0.0084	CN(C)C(=O)c1ccc(Nc2cc3[nH]c(-c4cnn(C)c4)c(Cl)c3cn2)c(Cl)c1 [Example 190, 3-Chloro-4-(3-chloro-2-(1-methyl-1H-pyrazol-4-yl)-1H-pyrrolo[3,2-c]pyridin-6-ylamino)-N,N-dimethylbenzamide]
0.008	CN1CCN(C(=O)c2ccc(Nc3cc4c(cn3)cc(-c3cnn(C)c3)n4C(=O)OC(C)(C)C)c(Cl)c2)CC1 [Example 41]
0.007	COc1cc(C(=O)N2CC(OC)C2)ccc1Nc1cc2[nH]c(-c3cnn(C)c3)cc2cn1 [Example 120, (3-Methoxy-4-(2-(1-methyl-1H-pyrazol-4-yl)-1H-pyrrolo[3,2-c]pyridin-6-ylamino)phenyl)(3-methoxyazetidin-1-yl)methanone]
0.007	CN(C)C(=O)c1ccc(Nc2cc3c(cn2)cc(-c2cnn(C)c2)n3C2CCCC2)c(Cl)c1 [Example 73]
0.007	COc1cc(C(=O)N2CCS(=O)(=O)CC2)ccc1Nc1cc2[nH]c(-c3cnn(C)c3)cc2cn1 [Example 115, (3-Methoxy-4-(2-(1-methyl-1H-pyrazol-4-yl)-1H-pyrrolo[3,2-c]pyridin-6-ylamino)phenyl)(thiomorpholino)methanone-S,S-dioxide]
0.006	CN(C)C(=O)c1ccc(Nc2cc3c(cn2)cc(-c2cnn(C)c2)n3C(=O)OC(C)(C)C)c(OC(F)(F)F)c1 [Example 3]
0.003	Cn1cc(-c2cc3cnc(Nc4ccc(-c5nccn5C)cc4Cl)cc3n2C(=O)OC(C)(C)C)cn1 [Example 22]
0.003	CN(C)C(=O)c1ccc(Nc2cc3[nH]c(-c4cnco4)c(Cl)c3cn2)c(Cl)c1 [Example 178, 3-Chloro-4-(3-chloro-2-(oxazol-5-yl)-1H-pyrrolo[3,2-c]pyridin-6-ylamino)-N,N-dimethylbenzamide]
0.003	CN(C)C(=O)c1ccc(Nc2cc3c(cn2)cc(-c2cnn(C)c2)n3C(=O)OC2CCCC2)c(Cl)c1 [Example 72]
0.002	Cc1ncc(-c2ccc(Nc3cc4c(cn3)cc(-c3cnco3)n4C(=O)OC(C)(C)C)c(Cl)c2)n1C [Example 107]
0.002	CCOC(=O)n1c(-c2cnn(C)c2)cc2cnc(Nc3ccc(-c4cnc(C)n4C)cc3Cl)cc21 [Example 87]
